Read-outs that look alike come from different tables or passages of the source.
Test system: C. difficile R20291 spores
Assay: C. difficile spore germination assay (optical density, OD580)
[1] = Clostridioides difficile, R20291SPORES, Table 2, 6 mM taurocholate, 12 mM glycine
[2] = Clostridioides difficile, R20291SPORES, read-out: % Germination, Table 2, compound 125 μM, 6 mM taurocholate, 12 mM glycine, ± standard deviation
[3] = Clostridioides difficile, R20291SPORES, read-out: IC50 against the R20291 strain, R20291 strain
[4] = Clostridioides difficile, R20291SPORES, Table 3, 6 mM taurocholate, 12 mM glycine
[5] = Clostridioides difficile, R20291SPORES, read-out: % Germination, Table 3, compound 125 μM, 6 mM taurocholate, 12 mM glycine, ± standard deviation
[6] = Table 4, compound 125 uM, 6 mM taurocholate, 12 mM glycine, ± standard deviation
[7] = Clostridioides difficile, R20291SPORES, Table 4, 6 mM taurocholate, 12 mM glycine
[8] = Clostridioides difficile, R20291SPORES, read-out: % Germination (125 μM), Table 5, compound 125 μM, 6 mM taurocholate, 12 mM glycine, 100% indicates no inhibition

Row | Structure (SMILES) | activity at 125 µM [2] | activity at 125 µM [5] | also measured
1 | C[C@H](CCC(=O)N1CCc2ccccc21)[C@H]1CC[C@H]2[C@@H]3[C@H](O)C[C@@H]4C[C@H](O)CC[C@]4(C)[C@H]3C[C@H](O)[C@]12C [Compound 1] | 4 ± 1% |  | IC50 [1]: 1 ± 0.3 µM; IC50 [3]: 1 µM
2 | C[C@H](CCC(=O)N1CCc2c(Cl)cccc21)[C@H]1CC[C@H]2[C@@H]3[C@H](O)C[C@@H]4C[C@H](O)CC[C@]4(C)[C@H]3C[C@H](O)[C@]12C [Compound 2] | 95 ± 8% |  | 
3 | Cc1ccc2c(c1)CCN2C(=O)CC[C@@H](C)[C@H]1CC[C@H]2[C@@H]3[C@H](O)C[C@@H]4C[C@H](O)CC[C@]4(C)[C@H]3C[C@H](O)[C@]12C [Compound 3] | 100% |  | 
4 | C[C@H](CCC(=O)N1CCc2cc(F)ccc21)[C@H]1CC[C@H]2[C@@H]3[C@H](O)C[C@@H]4C[C@H](O)CC[C@]4(C)[C@H]3C[C@H](O)[C@]12C [Compound 4] | 5 ± 3% |  | IC50 [1]: 0.4 ± 0.04 µM
5 | C[C@H](CCC(=O)N1CCc2cc(Cl)ccc21)[C@H]1CC[C@H]2[C@@H]3[C@H](O)C[C@@H]4C[C@H](O)CC[C@]4(C)[C@H]3C[C@H](O)[C@]12C [Compound 5] | 70 ± 3% |  | 
6 | C[C@H](CCC(=O)N1CCc2cc(Br)ccc21)[C@H]1CC[C@H]2[C@@H]3[C@H](O)C[C@@H]4C[C@H](O)CC[C@]4(C)[C@H]3C[C@H](O)[C@]12C [Compound 6] | 90 ± 3% |  | IC50 [3]: 0.4 µM
7 | COc1ccc2c(c1)N(C(=O)CC[C@@H](C)[C@H]1CC[C@H]3[C@@H]4[C@H](O)C[C@@H]5C[C@H](O)CC[C@]5(C)[C@H]4C[C@H](O)[C@]13C)CC2 [Compound 7] | 100% |  | 
8 | C[C@H](CCC(=O)N1CCCc2ccccc21)[C@H]1CC[C@H]2[C@@H]3[C@H](O)C[C@@H]4C[C@H](O)CC[C@]4(C)[C@H]3C[C@H](O)[C@]12C [Compound 8] | 17 ± 3% |  | IC50 [1]: 22 ± 3 µM
9 | Cc1ccc2c(c1)CCCN2C(=O)CC[C@@H](C)[C@H]1CC[C@H]2[C@@H]3[C@H](O)C[C@@H]4C[C@H](O)CC[C@]4(C)[C@H]3C[C@H](O)[C@]12C [Compound 9] | 100% |  | 
10 | C[C@H](CCC(=O)N1CCc2ccccc2C1)[C@H]1CC[C@H]2[C@@H]3[C@H](O)C[C@@H]4C[C@H](O)CC[C@]4(C)[C@H]3C[C@H](O)[C@]12C [Compound 11] | 78 ± 2% |  | 
11 | COc1ccc2c(c1)CCN(C(=O)CC[C@@H](C)[C@H]1CC[C@H]3[C@@H]4[C@H](O)C[C@@H]5C[C@H](O)CC[C@]5(C)[C@H]4C[C@H](O)[C@]13C)C2 [Compound 12] | 100% |  | 
12 | C[C@H](CCC(=O)N1CCc2cc(Br)ccc2C1)[C@H]1CC[C@H]2[C@@H]3[C@H](O)C[C@@H]4C[C@H](O)CC[C@]4(C)[C@H]3C[C@H](O)[C@]12C [Compound 13] | 100% |  | 
13 | C[C@H](CCC(=O)N(C)c1ccccc1)[C@H]1CC[C@H]2[C@@H]3[C@H](O)C[C@@H]4C[C@H](O)CC[C@]4(C)[C@H]3C[C@H](O)[C@]12C [Compound 14] | 31 ± 2% |  | IC50 [1]: 32 ± 5 µM
14 | C=CCN(CC=C)C(=O)CC[C@@H](C)[C@H]1CC[C@H]2[C@@H]3[C@H](O)C[C@@H]4C[C@H](O)CC[C@]4(C)[C@H]3C[C@H](O)[C@]12C [Compound 15] | 0.9 ± 0.2% |  | IC50 [1]: 8 ± 3 µM
15 | Cc1nc(CC[C@@H](C)[C@H]2CC[C@H]3[C@@H]4[C@H](O)C[C@@H]5C[C@H](O)CC[C@]5(C)[C@H]4C[C@H](O)[C@]23C)nc2ccccc12 [Compound 30] |  | 35 ± 5% | IC50 [4]: 37 ± 4 µM
16 | C[C@H](CCc1nc(-c2ccccc2)c2ccccc2n1)[C@H]1CC[C@H]2[C@@H]3[C@H](O)C[C@@H]4C[C@H](O)CC[C@]4(C)[C@H]3C[C@H](O)[C@]12C [Compound 31] |  | 92 ± 4% | 
17 | C[C@H](CCc1ncc2c(F)cccc2n1)[C@H]1CC[C@H]2[C@@H]3[C@H](O)C[C@@H]4C[C@H](O)CC[C@]4(C)[C@H]3C[C@H](O)[C@]12C [Compound 32] |  | 36 ± 6% | 
18 | C[C@H](CCc1ncc2cc(F)ccc2n1)[C@H]1CC[C@H]2[C@@H]3[C@H](O)C[C@@H]4C[C@H](O)CC[C@]4(C)[C@H]3C[C@H](O)[C@]12C [Compound 33] |  | 7 ± 3% | IC50 [4]: 28 ± 4 µM

Row | Structure (SMILES) | activity at 125 µM [2] | activity at 125 µM [5] | also measured
19 | C[C@H](CCc1ncc2cc(Cl)ccc2n1)[C@H]1CC[C@H]2[C@@H]3[C@H](O)C[C@@H]4C[C@H](O)CC[C@]4(C)[C@H]3C[C@H](O)[C@]12C [Compound 34] |  | 59 ± 0.2% | 
20 | C[C@H](CCc1ncc2ccc(F)cc2n1)[C@H]1CC[C@H]2[C@@H]3[C@H](O)C[C@@H]4C[C@H](O)CC[C@]4(C)[C@H]3C[C@H](O)[C@]12C [Compound 35] |  | 57 ± 2% | 
21 | C[C@H](CCc1ncc2ccc(Cl)cc2n1)[C@H]1CC[C@H]2[C@@H]3[C@H](O)C[C@@H]4C[C@H](O)CC[C@]4(C)[C@H]3C[C@H](O)[C@]12C [Compound 36] |  | 89 ± 10% | 
22 | COc1ccc2cnc(CC[C@@H](C)[C@H]3CC[C@H]4[C@@H]5[C@H](O)C[C@@H]6C[C@H](O)CC[C@]6(C)[C@H]5C[C@H](O)[C@]34C)nc2c1 [Compound 37] |  | 61 ± 5% | 
23 | C[C@H](CCc1ncc2cccc(F)c2n1)[C@H]1CC[C@H]2[C@@H]3[C@H](O)C[C@@H]4C[C@H](O)CC[C@]4(C)[C@H]3C[C@H](O)[C@]12C [Compound 38] |  | 7 ± 0.7% | IC50 [4]: 79 ± 23 µM
24 | COc1cc2cnc(CC[C@@H](C)[C@H]3CC[C@H]4[C@@H]5[C@H](O)C[C@@H]6C[C@H](O)CC[C@]6(C)[C@H]5C[C@H](O)[C@]34C)nc2cc1OC [Compound 39] |  | 78 ± 3% | 
25 | C[C@H](CCc1ncc2cc(F)c(F)cc2n1)[C@H]1CC[C@H]2[C@@H]3[C@H](O)C[C@@H]4C[C@H](O)CC[C@]4(C)[C@H]3C[C@H](O)[C@]12C [Compound 41] |  | 70 ± 23% | 
26 | C[C@H](CCc1nc2ccccc2c(=O)[nH]1)[C@H]1CC[C@H]2[C@@H]3[C@H](O)C[C@@H]4C[C@H](O)CC[C@]4(C)[C@H]3C[C@H](O)[C@]12C [Compound 43] |  | 32 ± 0.6% | IC50 [4]: 20 ± 11 µM
27 | C[C@H](CCc1nc2ccccc2[nH]1)[C@H]1CC[C@H]2[C@@H]3[C@H](O)C[C@@H]4C[C@H](O)CC[C@]4(C)[C@H]3C[C@H](O)[C@]12C [Compound 45] |  |  | IC50 (Table 4, 6 mM taurocholate, 12 mM glycine): 12 ± 7 µM; % Germination [6]: 18 ± 2%
28 | C[C@H](CCc1nc2ccccc2[nH]1)[C@H]1CC[C@H]2[C@@H]3[C@H](O)C[C@@H]4C[C@H](O)CC[C@]4(C)[C@H]3C[C@H](O)[C@]12C [Compound 46] |  |  | IC50 [7]: 6 ± 1 µM; activity at 125 µM (Clostridioides difficile, R20291SPORES, read-out: % Germination, Table 4, compound 125 uM, 6 mM taurocholate, 12 mM glycine, ± standard deviation): 23 ± 5%
29 | C[C@H](CCc1nc2ccccc2s1)[C@H]1CC[C@H]2[C@@H]3[C@H](O)C[C@@H]4C[C@H](O)CC[C@]4(C)[C@H]3C[C@H](O)[C@]12C [Compound 47] |  |  | IC50 [7]: 6 ± 4 µM; % Germination [6]: −6 ± 0.05%
30 | C[C@H](CCc1nc2ccccc2s1)[C@H]1CC[C@H]2[C@@H]3[C@H](O)C[C@@H]4C[C@H](O)CC[C@]4(C)[C@H]3C[C@H](O)[C@]12C [Compound 48] |  |  | % Germination [6]: 88 ± 5%
31 | C[C@H](CCc1nc2ccccc2s1)[C@H]1CC[C@H]2[C@@H]3[C@H](O)C[C@@H]4C[C@H](O)CC[C@]4(C)[C@H]3C[C@H](O)[C@]12C [Compound 49] |  |  | % Germination [6]: 81 ± 2%
32 | C[C@H](CCc1nc2ccccc2o1)[C@H]1CC[C@H]2[C@@H]3[C@H](O)C[C@@H]4C[C@H](O)CC[C@]4(C)[C@H]3C[C@H](O)[C@]12C [Compound 50] |  |  | IC50 [7]: 6 ± 3 µM; % Germination [6]: −4 ± 0.8%
33 | C[C@H](CCc1nc2ccccc2o1)[C@H]1CC[C@H]2[C@@H]3[C@H](O)C[C@@H]4C[C@H](O)CC[C@]4(C)[C@H]3C[C@H](O)[C@]12C [Compound 51] |  |  | % Germination [6]: 80 ± 4%
34 | C[C@H](CCc1nc2ccccc2o1)[C@H]1CC[C@H]2[C@@H]3[C@H](O)C[C@@H]4C[C@H](O)CC[C@]4(C)[C@H]3C[C@H](O)[C@]12C [Compound 52] |  |  | % Germination [6]: 83 ± 8%
35 | COc1ccccc1NC(=O)CC[C@@H](C)[C@H]1CC[C@H]2[C@@H]3[C@H](O)C[C@@H]4C[C@H](O)CC[C@]4(C)[C@H]3CC[C@]12C [Compound 54] |  |  | IC50 (Clostridioides difficile, R20291SPORES, Table 5, 6 mM taurocholate, 12 mM glycine): 6 ± 1 µM; activity at 125 µM [8]: 31 ± 2%
36 | C[C@H](CCC(=O)Nc1cccc(F)c1)[C@H]1CC[C@H]2[C@@H]3[C@H](O)C[C@@H]4C[C@H](O)CC[C@]4(C)[C@H]3CC[C@]12C [Compound 55] |  |  | activity at 125 µM [8]: 100%

From patent US12220421B2, “Inhibitors of C. difficile spore germination” (THE BOARDS OF REGENTS OF THE NEVADA SYSTEM OF HIGHER …, priority 2021, dated 2025)
